Test results reported in ChEMBL document CHEMBL4196115 (ACS Med Chem Lett, 2018).
Residue numbers refer to the chain shown, from its start. Activity calls are given as the source filed them. The calls are words filed in the database; no cut-off is given here.

Tests used:
[1] = molecular target: T1, Muscarinic acetylcholine receptor M4 (Homo sapiens) (UniProt P08173); experiment: Positive allosteric modulation of human muscarinic acetylcholine receptor M4 expressed in CHO cells; format: functional, cell-based
T1 sequence (whole entry): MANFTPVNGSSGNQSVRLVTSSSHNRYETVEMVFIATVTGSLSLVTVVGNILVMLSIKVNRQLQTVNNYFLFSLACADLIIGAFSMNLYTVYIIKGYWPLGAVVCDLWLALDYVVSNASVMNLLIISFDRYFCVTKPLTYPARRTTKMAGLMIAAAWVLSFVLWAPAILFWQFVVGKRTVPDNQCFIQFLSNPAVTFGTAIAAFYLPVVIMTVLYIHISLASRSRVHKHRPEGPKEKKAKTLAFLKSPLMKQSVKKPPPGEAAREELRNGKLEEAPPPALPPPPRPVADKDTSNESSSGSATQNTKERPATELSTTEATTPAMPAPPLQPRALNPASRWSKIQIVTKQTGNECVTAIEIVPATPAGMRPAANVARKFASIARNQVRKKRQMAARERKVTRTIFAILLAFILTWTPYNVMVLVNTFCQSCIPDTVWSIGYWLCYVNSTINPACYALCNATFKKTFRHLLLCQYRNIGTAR

[2] = molecular target: T2, Muscarinic acetylcholine receptor M2 (Homo sapiens) (UniProt P08172); experiment: Agonist activity at human muscarinic acetylcholine receptor M2 expressed in CHO cells; format: functional, cell-based
T2 sequence (whole entry): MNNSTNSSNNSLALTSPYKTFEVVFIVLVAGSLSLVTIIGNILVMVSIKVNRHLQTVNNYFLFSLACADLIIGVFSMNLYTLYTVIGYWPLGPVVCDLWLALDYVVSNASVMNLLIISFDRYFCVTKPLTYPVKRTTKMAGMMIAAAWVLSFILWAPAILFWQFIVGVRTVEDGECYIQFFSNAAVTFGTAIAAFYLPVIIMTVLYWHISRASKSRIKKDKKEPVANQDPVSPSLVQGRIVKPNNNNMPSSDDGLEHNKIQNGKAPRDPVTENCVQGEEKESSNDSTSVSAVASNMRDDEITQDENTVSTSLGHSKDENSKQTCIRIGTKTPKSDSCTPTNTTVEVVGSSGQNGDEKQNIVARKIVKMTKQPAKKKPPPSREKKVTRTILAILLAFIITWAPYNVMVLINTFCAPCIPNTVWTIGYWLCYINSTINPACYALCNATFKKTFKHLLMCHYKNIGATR

[3] = molecular target: Muscarinic acetylcholine receptor M3 (Homo sapiens) (UniProt P20309); experiment: Agonist activity at human muscarinic acetylcholine receptor M3 expressed in CHO cells; format: functional, cell-based
Chain of Muscarinic acetylcholine receptor M3 (Homo sapiens) (P20309 whole entry, looked up): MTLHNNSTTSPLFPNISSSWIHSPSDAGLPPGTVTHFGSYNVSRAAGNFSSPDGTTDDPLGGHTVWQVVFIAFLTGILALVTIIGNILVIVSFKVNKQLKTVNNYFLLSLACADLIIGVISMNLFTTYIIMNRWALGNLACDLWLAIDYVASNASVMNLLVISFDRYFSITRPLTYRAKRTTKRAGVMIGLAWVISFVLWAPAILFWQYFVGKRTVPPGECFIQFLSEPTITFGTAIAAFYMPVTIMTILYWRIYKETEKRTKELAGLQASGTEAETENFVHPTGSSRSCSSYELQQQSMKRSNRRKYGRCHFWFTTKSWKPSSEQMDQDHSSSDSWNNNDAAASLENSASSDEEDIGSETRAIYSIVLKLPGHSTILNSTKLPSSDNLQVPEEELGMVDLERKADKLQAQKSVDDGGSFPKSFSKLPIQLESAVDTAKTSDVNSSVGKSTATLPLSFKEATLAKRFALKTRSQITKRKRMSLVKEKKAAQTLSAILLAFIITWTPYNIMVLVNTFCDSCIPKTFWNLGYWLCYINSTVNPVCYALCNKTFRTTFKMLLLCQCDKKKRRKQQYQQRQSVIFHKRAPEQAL

[4] = molecular target: T3, Muscarinic acetylcholine receptor M5 (Homo sapiens) (UniProt P08912); experiment: Agonist activity at human muscarinic acetylcholine receptor M5 expressed in CHO cells; format: functional, cell-based
T3 sequence (whole entry): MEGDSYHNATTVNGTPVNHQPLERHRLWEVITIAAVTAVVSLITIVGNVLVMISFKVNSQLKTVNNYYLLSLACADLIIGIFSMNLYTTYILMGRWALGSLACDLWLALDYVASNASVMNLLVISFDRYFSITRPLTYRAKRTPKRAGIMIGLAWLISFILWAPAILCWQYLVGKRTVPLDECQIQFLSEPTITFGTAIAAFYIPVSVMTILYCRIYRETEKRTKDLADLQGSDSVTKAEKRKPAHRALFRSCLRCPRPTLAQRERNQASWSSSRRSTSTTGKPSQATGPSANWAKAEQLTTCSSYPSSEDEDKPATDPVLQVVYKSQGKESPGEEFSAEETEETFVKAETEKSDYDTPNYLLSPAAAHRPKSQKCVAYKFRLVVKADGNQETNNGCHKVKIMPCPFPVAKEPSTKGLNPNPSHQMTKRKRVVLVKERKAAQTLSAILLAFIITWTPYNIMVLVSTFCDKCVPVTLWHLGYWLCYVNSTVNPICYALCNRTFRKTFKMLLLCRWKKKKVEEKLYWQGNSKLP

Mus musculus [5] = experiment: Antialzheimer activity in mouse assessed as plasma concentration required for reversal of scopolamine-induced emotional memory deficits by measuring increase in freezing at 3 mg/kg, ip measured after 24 hrs by contextual fear conditioning assay; format: functional, organism-based
Mus musculus [6] = experiment: Antialzheimer activity in mouse assessed as unbound brain concentration required for reversal of scopolamine-induced emotional memory deficits by measuring increase in freezing at 3 mg/kg, ip measured after 24 hrs by contextual fear conditioning assay; format: functional, organism-based
[7] = molecular target: T4, Muscarinic acetylcholine receptor M1 (Rattus norvegicus) (UniProt P08482); settings: CHO
T4 sequence (whole entry): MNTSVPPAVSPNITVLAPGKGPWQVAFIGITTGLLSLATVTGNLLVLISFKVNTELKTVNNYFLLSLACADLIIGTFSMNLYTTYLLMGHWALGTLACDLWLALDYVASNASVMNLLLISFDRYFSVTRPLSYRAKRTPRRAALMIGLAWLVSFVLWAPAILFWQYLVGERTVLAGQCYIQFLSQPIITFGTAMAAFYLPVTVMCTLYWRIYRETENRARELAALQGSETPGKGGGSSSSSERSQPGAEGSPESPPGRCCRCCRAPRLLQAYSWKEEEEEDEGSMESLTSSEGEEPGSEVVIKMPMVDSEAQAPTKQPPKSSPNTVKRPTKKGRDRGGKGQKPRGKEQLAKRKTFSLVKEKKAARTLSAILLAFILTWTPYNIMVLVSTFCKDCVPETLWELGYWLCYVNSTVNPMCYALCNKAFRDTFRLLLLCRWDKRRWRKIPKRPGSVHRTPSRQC
Description: Positive allosteric modulation of rat muscarinic acetylcholine receptor M1 expressed in CHO cells assessed as increase in acetylcholine-induced calcium mobilization pretreated for 4 mins followed by acetylcholine addition and measured after 4 mins by Fluo-4-AM dye based FLIPR assay

[8] = molecular target: T5, Muscarinic acetylcholine receptor M1 (Mus musculus) (UniProt P12657); settings: CHO
T5 sequence (whole entry): T4 sequence (whole entry) with S309P
Description: Positive allosteric modulation of mouse muscarinic acetylcholine receptor M1 expressed in CHO cells assessed as increase in acetylcholine-induced calcium mobilization pretreated for 4 mins followed by acetylcholine addition and measured after 4 mins by Fluo-4-AM dye based FLIPR assay

SMILES: Cc1ccc(Cc2cc3c(=O)n([C@H]4CCCC[C@@H]4O)cnc3c3ccccc23)cn1
- Activity [1]: inactive
- Activity [2]: inactive
- Activity [3]: inactive
- Activity [4]: inactive
- Cp (Mus musculus [5]): 2.4 µM
- Drug uptake(free) (Mus musculus [6]): 24 nM
- IP [7]: 14 nM
- IP [8]: 6.7 nM
